The test deals with SH-SY5Y cells. In words: dSTORM superresolution imaging of intracellular aggregates. The class given is cell-based, human. The following applies: 500 nM monomers, fixed cells; for average size of intracellular aggregates (diameter / longest dimension) after 24 hr: pixel counting in dSTORM images, only aggregates above resolution limit (55–70 nm), n = 18–27; for change in size of intracellular aggregates between 24 and 48 hr: pixel counting in dSTORM images (Figure 5B). The procedure: To further investigate the nature of the intracellular Aβ(1–40) and Aβ(1–42) aggregates, we used superresolution fluorescence microscopy to analyze their physical appearance. […] Thus, we treated SH-SY5Y cells with 500 nM of ^HF647Aβ(1–40) or 500 nM of ^HF647Aβ(1–42) monomers for periods of 24 and 48 h. Thereafter, the cells were fixed, immersed in switching buffer, and imaged at single-molecule resolution using a homebuilt total internal reflection fluorescence (TIRF) microscope operated under highly inclined illumination ([Tokunaga et al., 2008]) to obtain images from an image plane within the cells. Superresolved images (Figure 5A) of the intracellular ^HF647Aβ(1–40) and ^HF647Aβ(1–42) aggregates were then reconstructed as described in the Experimental Procedures. dSTORM results in a dramatic increase in resolution compared with conventional confocal imaging (Figure S4). In this case, the lateral resolution of our images was calculated to be 55–70 nm using a blind assessment density estimation approach ([Rees et al., 2012]). Features larger than the lateral resolution limit can, therefore, be interpreted with confidence as having approximately the correct size and shape. […] The ^HF647Aβ(1–42) aggregates, by contrast, appear to include both spherical and elongated species, with an average size along their longest dimension of approximately 225 nm (Figure 5B). The observation that, after 24 hr, ^HF647Aβ(1–42) forms intracellular species that are larger than those formed by ^HF647Aβ(1–40) is consistent with the differences in their mean fluorescence lifetimes (Figures 4C, 4D, and 5C). […] Comparison of the FLIM and dSTORM data recorded after 24 and 48 hr indicates a qualitative relationship between aggregate size and HF488 fluorescence lifetime (Figures 5B and 5C), supporting the conclusion that the fluorescence lifetime reflects the nature and abundance of the Aβ amyloid aggregates formed in vivo.
Human neuroblastoma cells (SH-SY5Y) were grown in 1:1 minimal essential medium (MEM) and nutrient mixture F-12 Ham (Sigma-Aldrich) with sodium bicarbonate, including 15% heat-inactivated fetal bovine serum, 1% MEM non-essential amino acids, 2 mM […], 1% penicillin-streptomycin (10,000 U/ml K1), and 0.1% fungizone (amphotericin B, […] K1) (Life Technologies). Cells were plated 1 day prior to experiments in glass-bottomed culture dishes (MatTek) at a density of 50,000 cells/14-mm dish. […]
All dSTORM experiments were carried out using HF647-labeled peptides. Fluorescence images for dSTORM were taken on a Nikon Te-300 Eclipse inverted wide field microscope, with a 100×, 1.49 numerical aperture TIRF objective lens, an Andor iXon 887DV electron-multiplying charge-coupled device camera, and a Semrock fluorescence filter set (LF405/488/561/635-A-00). […]

This is an account of results in PMC4067742, “Direct Observations of Amyloid β Self-Assembly in Live Cells Provide Insights into Differences in the Kinetics of Aβ(1–40) and Aβ(1–42) Aggregation” (Chemistry & Biology, 2014).

Regarding “^HF647Aβ(1–40): Synthetic amyloid β (1–40) peptide labeled at the N terminus with Hilyte Fluor 647, purchased from Anaspec”, the “average size of intracellular aggregates (diameter / longest dimension) after 24 hr” value is recorded as “approximately 160 nm”; the “change in size of intracellular aggregates between 24 and 48 hr” value is “appear to have increased in size”.

Regarding “^HF647Aβ(1–42): Synthetic amyloid β (1–42) peptide labeled at the N terminus with Hilyte Fluor 647, purchased from Anaspec”, the “average size of intracellular aggregates (diameter / longest dimension) after 24 hr” value was “approximately 225 nm”; the “change in size of intracellular aggregates between 24 and 48 hr” value was “no significant change in the size”.
